According to patent publication US10639299B2, “Calcium sensing receptors, ligands, compositions, and methods of use” (Georgia State University Research Foundation, Inc., priority 2016, dated 2020):
Read-outs that look alike come from different tables or passages of the source.

Experiments:
CaSR [1] = molecular target: T1, CaSR (Homo sapiens, UniProt P41180); design: host or cells: HEK cells, transient; conditions: HEK cells, in the presence of 150 mM NaCl; read-out: EC50 for intracellular calcium responses; cited from earlier work
T1 sequence (P41180 20-1078): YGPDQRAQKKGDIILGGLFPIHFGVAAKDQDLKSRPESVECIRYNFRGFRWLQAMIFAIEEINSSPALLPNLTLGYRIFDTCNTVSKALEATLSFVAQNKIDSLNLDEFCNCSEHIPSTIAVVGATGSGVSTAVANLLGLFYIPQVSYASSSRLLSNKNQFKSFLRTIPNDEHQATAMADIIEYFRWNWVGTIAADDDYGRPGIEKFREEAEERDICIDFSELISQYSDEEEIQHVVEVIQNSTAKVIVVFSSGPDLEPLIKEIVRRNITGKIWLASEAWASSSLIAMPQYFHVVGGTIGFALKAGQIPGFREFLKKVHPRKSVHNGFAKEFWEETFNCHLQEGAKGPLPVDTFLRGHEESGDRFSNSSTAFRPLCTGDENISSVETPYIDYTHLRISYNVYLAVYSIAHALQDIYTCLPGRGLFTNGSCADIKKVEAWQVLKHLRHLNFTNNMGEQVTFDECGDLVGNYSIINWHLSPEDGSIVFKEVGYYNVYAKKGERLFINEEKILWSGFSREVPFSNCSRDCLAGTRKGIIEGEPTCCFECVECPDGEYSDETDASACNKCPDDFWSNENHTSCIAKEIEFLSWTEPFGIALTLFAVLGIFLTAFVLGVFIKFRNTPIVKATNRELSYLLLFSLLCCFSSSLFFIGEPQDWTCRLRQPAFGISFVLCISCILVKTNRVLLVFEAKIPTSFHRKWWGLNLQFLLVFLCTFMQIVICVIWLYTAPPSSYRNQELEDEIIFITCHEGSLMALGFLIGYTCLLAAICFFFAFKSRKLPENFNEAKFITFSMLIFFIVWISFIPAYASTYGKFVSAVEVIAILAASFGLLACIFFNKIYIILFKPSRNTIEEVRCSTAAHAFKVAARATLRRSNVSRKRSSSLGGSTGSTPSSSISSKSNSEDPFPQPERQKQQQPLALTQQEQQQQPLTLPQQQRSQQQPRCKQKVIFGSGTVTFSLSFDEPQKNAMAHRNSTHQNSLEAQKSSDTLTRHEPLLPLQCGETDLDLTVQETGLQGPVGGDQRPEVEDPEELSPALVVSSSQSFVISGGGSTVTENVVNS

CaSR [2] = molecular target: T2, CaSR (Bos taurus, UniProt P35384); conditions: X. laevis oocytes; cited from earlier work
T2 construct: host or cells: X. laevis oocytes
T2 sequence (P35384 20-1085): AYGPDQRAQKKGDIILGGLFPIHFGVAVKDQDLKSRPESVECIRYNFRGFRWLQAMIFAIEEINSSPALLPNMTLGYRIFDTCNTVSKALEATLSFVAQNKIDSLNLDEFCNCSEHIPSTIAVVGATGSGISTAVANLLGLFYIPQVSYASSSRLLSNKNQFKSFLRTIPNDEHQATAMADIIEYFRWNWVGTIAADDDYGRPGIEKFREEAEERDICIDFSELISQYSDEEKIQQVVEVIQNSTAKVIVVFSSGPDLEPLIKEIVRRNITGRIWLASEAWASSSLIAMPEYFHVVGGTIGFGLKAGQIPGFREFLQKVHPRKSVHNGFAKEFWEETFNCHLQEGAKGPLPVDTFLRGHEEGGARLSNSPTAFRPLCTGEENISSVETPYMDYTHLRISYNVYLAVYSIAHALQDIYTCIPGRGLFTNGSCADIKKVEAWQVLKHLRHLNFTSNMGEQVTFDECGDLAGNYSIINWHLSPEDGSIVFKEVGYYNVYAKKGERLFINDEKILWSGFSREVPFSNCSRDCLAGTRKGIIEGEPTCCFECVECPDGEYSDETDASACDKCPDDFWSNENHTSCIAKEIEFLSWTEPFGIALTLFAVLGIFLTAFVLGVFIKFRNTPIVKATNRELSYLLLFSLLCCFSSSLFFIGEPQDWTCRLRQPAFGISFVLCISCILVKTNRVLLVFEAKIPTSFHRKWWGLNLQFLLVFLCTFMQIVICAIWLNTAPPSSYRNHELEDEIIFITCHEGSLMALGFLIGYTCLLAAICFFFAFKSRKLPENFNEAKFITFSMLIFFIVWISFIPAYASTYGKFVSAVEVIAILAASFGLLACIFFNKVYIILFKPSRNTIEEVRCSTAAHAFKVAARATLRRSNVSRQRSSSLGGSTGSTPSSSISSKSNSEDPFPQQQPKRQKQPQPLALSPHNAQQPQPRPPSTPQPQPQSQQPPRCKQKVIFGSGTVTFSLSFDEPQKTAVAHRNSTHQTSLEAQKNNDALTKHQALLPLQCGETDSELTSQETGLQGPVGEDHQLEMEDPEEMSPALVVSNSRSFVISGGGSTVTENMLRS

ECD of CaSR = molecular target: T3, ECD of CaSR (Homo sapiens, UniProt P41180); experiment: Ca2+ binding to the ECD by Trp fluorescence signal change; conditions: for Kd: read-out: Kd, 2-phase Hill equation
T3 construct: made in house; host or cells: HEK293S (GnTI-) suspension culture, secreted
T3 sequence (P41180 20-612): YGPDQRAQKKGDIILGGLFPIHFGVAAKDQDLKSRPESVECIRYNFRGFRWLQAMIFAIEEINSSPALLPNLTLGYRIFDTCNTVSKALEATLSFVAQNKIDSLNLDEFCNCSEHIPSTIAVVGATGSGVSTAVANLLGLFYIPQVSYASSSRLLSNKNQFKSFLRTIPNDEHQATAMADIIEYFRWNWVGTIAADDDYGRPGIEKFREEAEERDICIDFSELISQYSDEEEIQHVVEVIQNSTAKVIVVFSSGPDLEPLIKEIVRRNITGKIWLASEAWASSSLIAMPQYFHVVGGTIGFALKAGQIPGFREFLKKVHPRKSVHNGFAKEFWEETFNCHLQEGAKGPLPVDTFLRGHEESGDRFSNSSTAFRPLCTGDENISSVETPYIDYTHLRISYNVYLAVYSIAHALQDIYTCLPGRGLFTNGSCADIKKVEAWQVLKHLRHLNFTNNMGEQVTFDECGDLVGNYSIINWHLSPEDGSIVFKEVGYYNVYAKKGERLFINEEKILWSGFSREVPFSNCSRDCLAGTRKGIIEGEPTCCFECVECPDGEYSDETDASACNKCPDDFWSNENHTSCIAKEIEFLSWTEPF

CaSR [3] = molecular target: T1, CaSR; experiment: ERK1/2 phosphorylation in 5001 cells stably expressing hCaSR; format: cell-based; design: expressed in transfected cells
Procedure: The 5001 cell line stably expressing hCaSR was starved in serum-free DMEM medium supplemented with 0.2% (w/v) BSA overnight, followed by washing 3-times with HBSS and a subsequent 10 minute HBSS incubation after 12 hours. To induce ERK1/2 phosphorylation, varying concentrations of [Mg^2+]o (0-50 mM) or [Ca^2+]o (0-30 mM) with or without 0.5 mM TNCA were added to cells and incubated for 10 minutes at 37° C. The cells were then lysed with Pierce RIPA buffer (ThermoFisher Scientific). Total protein concentration was measured using the BioRad assay. Lysates containing 100 μg of total protein were loaded onto 4-20% gradient SDS-PAGE gels for separation. After electrophoresis, proteins on the gel were transferred to nitrocellulose membranes and further analyzed by western blotting. Anti-phospho-p44/42 ERK (1:1000 dilution) and anti-p44/42 (1:2000) polyclonal antibodies were utilized as probes to detect the phosphorylated ERK1/2 and total ERK1/2 respectively. A chemiluminescent detection method (AP Conjugate Substrate Kit, Bio-Rad) was applied to detect phosphor-ERK1/2 and total-ERK1/2. The respective bands on western blots were evaluated by densitometry. The EC50 of [Mg^2+]o- or [Ca^2+]o-dependent responses were obtained by fitting the [Mg^2+]o or [Ca^2+]o concentration-response curves with the Hill equation (Eq.1).

CaSR [4] = molecular target: T1, CaSR; experiment: [Ca^2+]i signaling (Fura-2) evoked by [Mg^2+]o/[Ca^2+]o in CaSR-expressing HEK293 cells (5001 cell population assay); format: cell-based; design: expressed in transfected cells
Procedure: Measurement of intracellular free Ca^2+ was assessed as described by Huang, et al^33. Briefly, wild type CaSR, or its mutants, were transiently transfected into HEK293 cells grown on coverslips and cultured for 48 h. The cells were subsequently loaded for 15 min using 2 μM Fura-2 AM in 2 mL physiological saline buffer (10 mM HEPES, 140 mM NaCl, 5 mM KCl, 1.0 mM MgCl2 and pH 7.4). The coverslips were mounted in a bath chamber on the stage of a Leica DM6000 fluorescence microscope. The cells were alternately illuminated with 340 or 380 nm light, and the fluorescence at an emission wavelength 510 nm was recorded in real time as the [Ca^2+]o and/or [Mg^2+]o was increased in a stepwise manner in the presence or absence of 0.25 mM TNCA in buffer (10 mM HEPES, 155 mM NaCl, 5 mM KCl, 2 mM NaH2PO4, 0.5 mM MgCl2 and pH 7.4). The ratio of the emitted fluorescence intensities resulting from excitation at both wavelengths was utilized as a surrogate for changes in [Ca^2+]i and was further plotted and analyzed as a function of [Ca^2+]o. All experiments were performed at room temperature. The signals from 20 to 100 single cells were recorded for each measurement. Oscillations were identified as three successive fluctuations in [Ca^2+]i after the initial peak. Determination of the Effect of TNCA on Mg^2+-Evoked [Ca^2+]i Signaling by Stimulation of CaSR in Cell Populations.
Changes in the intracellular Ca^2+ concentration [Ca^2+ ]i elicited by extracellular Mg^2+ ([Mg^2+]o) in a population of cells were measured by fluorimetry as described previously^33. A cell line stably expressing CaSR (designated the “5001 cell line”) was seeded on 13.5×20-mm coverslips and cultured in DMEM. After reaching 95% confluence, cells were washed three times using loading buffer (20 mM HEPES [pH 7.4], 125 mM NaCl, 5 mM KCl, 1.25 mM CaCl2, 1 mM MgCl2, 1 mM NaH2PO4, 1% glucose, and 1% BSA) and subsequently incubated with 4 μM Fura-2 and 4 μM pluronic F127 for 20 minutes at 37° C. to enable sufficient dye loading in the same buffer. After removing the excess Fura-2, coverslips with cells were diagonally positioned in a quartz cuvette filled with 3 ml of experimental buffer (125 mM NaCl, 5 mM KCl, 0.5 mM CaCl2, 0.5 mM MgCl2, 1% glucose, and 1% BSA). Measurements of Fura-2 fluorescence at 510 nm when excited at 340 or 380 nm were performed on a QM1 fluorescence spectrophotometer (PTI). The emission ratio of 340/380 was calculated and used to reflect the changes in [Ca^2+]i when different concentrations of [Mg^2+]o were applied to the cells.
To examine the co-activation of CaSR by TNCA and [Mg^2+]o or [Ca^2+]o, different concentrations of TNCA were placed in the experimental buffer with a fixed concentration of [Ca^2+]o and varying concentrations of [Mg^2+]o, or vice versa, as described in the results section. The effects of other ligands were analyzed by comparing the changes in [Ca^2+ ]i produced by [Mg^2+]o alone or by co-application of Mg^2+ with other ligands. The EC50 of [Mg^2+]o obtained during incubation with various concentrations of TNCA is compared with that observed in the presence of [Mg^2+]o alone. The EC50 changes were plotted as a function of TNCA concentration and the curve was fit to the Hill equation. The activation of CaSR by the TNCA, functioning as a co-agonist with [Mg^2+]o, is indicated by the increasingly leftward-shifted EC50 for [Mg^2+]o as the concentration of TNCA increases (FIG. 6).

Compound	EC50 (CaSR [1]) [µM]	EC50 (CaSR [2]) [µM]	Hill number, 2-phase Hill equation (ECD of CaSR; first phase)	Kd (ECD of CaSR; first phase) [µM]	Hill number, 2-phase Hill equation (ECD of CaSR; second phase)	Kd (ECD of CaSR; second phase) [µM]	co-agonism with [Mg^2+]o in activating ERK1/2 phosphorylation (CaSR [3])	co-agonism with [Mg^2+]o in activating [Ca^2+]i oscillations (CaSR [4])	potency relative to Phe in reducing the EC50 for [Mg^2+]o or [Ca^2+]o activation of [Ca^2+]i signaling (CaSR [4]; WT and mutant CaSRs)	EC50 (CaSR [4]; determined indirectly through the EC50 change of [Mg^2+]o at different TNCA concentrations, 0.5 mM [Ca^2+]o, read-out: apparent EC50 of TNCA as co-agonist) [µM]	activation of the receptor by the exogenous compound alone (CaSR [4]; without metal agonist)
[Ca+2] [Ca^2+, calcium]	3000 to 5000	3000	1.1	900	3.8	10000					
O=C(O)[C@@H]1Cc2c([nH]c3ccccc23)CN1 [TNCA, L-1,2,3,4-tetrahydronorharman-3-carboxylic acid]							strong co-agonist	strong co-agonist	greater than 1000 fold	≥ 2	cannot activate the receptor
